Test results: US20170152239A1, “BENZAMIDE AND HETEROBENZAMIDE COMPOUNDS” (PFIZER INC., priority 2012, published 2017)

Target: WT EZH2 (EZH2 4 protein complex: EZH2, EED, SUZ12, RbAp48) (Homo sapiens, UniProt O75530+Q09028+Q15022+Q15910)
Test: WT EZH2 nucleosome assay
Type: biochemical
Conditions: nucleosome assay, 5 nM EZH2 4-protein complex, 1.5 μM SAM; read-out: WT EZH2 IC50
How it was run: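 IC50 values come from 4-parameter fits of 11-point dose responses, with % effect also given at 20 μM. Reactions held HeLa oligonucleosomes (25 μg/mL), rH1 (50 nM), 1.5 μM tritiated SAM and 5 nM enzyme complex at pH 8.5 Tris/DTT/Tween; stopped by TCA after 60 min, filtered and scintillation-counted.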

WT EZH2 (EZH2 4 protein complex: EZH2, EED, SUZ12, RbAp48), sequence (Q15910 whole entry): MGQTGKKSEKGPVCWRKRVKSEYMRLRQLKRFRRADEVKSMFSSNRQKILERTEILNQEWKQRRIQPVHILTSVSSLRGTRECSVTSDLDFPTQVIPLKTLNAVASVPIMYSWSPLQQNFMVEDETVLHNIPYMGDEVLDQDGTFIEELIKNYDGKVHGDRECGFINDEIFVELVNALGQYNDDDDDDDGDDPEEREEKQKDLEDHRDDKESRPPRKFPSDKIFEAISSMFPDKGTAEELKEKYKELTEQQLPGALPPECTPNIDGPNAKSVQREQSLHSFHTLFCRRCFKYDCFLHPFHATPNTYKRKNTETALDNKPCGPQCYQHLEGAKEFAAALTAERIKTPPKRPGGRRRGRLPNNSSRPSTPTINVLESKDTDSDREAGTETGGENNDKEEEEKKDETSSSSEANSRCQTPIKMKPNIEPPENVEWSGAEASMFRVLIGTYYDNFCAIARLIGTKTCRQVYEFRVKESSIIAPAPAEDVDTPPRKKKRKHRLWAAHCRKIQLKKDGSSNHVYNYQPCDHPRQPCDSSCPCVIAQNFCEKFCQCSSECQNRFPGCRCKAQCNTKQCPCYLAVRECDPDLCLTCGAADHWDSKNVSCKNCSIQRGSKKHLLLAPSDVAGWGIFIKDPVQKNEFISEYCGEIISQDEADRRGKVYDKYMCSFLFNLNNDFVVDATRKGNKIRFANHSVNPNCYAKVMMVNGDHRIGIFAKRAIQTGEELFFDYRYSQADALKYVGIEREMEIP
WT EZH2 (EZH2 4 protein complex: EZH2, EED, SUZ12, RbAp48), sequence (O75530 whole entry partner): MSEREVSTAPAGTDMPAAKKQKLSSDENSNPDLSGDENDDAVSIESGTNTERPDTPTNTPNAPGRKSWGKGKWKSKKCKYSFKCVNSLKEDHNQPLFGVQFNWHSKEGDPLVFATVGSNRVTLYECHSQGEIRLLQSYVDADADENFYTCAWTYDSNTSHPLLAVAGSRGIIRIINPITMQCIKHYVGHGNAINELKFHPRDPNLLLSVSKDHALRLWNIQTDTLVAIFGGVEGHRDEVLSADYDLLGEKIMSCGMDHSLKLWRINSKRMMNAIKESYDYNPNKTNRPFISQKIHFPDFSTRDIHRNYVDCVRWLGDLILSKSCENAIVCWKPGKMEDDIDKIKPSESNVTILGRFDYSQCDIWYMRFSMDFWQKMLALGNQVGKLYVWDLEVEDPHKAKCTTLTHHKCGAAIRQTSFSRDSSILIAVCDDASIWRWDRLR
WT EZH2 (EZH2 4 protein complex: EZH2, EED, SUZ12, RbAp48), sequence (Q15022 whole entry partner): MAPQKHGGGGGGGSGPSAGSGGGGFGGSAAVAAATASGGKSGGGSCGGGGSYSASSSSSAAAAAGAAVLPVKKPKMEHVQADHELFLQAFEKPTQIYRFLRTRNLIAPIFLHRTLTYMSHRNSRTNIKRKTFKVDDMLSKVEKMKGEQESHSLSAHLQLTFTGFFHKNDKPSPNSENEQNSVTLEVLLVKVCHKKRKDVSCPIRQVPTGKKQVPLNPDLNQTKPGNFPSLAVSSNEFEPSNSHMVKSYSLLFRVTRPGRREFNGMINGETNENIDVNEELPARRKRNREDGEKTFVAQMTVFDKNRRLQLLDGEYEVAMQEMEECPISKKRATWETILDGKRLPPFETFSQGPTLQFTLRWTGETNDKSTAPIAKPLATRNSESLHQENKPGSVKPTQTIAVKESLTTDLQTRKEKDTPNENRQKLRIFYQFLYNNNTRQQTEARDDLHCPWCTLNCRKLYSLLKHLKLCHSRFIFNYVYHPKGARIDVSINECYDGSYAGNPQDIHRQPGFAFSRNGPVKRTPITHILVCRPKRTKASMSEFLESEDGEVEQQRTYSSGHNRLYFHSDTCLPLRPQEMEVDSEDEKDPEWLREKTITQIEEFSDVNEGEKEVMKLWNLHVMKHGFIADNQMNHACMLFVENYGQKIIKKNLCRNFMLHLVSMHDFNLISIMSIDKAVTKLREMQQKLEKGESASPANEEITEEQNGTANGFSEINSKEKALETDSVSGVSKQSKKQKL
WT EZH2 (EZH2 4 protein complex: EZH2, EED, SUZ12, RbAp48), sequence (Q09028 whole entry partner): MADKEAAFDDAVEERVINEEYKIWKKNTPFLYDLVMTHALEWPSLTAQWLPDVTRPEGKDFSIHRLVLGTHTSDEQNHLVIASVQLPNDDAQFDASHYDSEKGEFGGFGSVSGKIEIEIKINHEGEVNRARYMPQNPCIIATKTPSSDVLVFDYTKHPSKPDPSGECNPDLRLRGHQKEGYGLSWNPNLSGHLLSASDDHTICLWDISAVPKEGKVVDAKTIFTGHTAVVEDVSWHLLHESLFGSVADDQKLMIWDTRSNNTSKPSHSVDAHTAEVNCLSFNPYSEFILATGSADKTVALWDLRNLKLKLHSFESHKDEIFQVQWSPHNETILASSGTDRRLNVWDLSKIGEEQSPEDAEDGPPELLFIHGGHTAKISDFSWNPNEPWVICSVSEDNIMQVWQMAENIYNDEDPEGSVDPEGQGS

`Cc1cc(C)c(CNC(=O)c2nc(OCCN3CCC(F)(F)CC3)nc(-c3ccnn3C)c2C)c(=O)[nH]1` [Example 98, 2-[2-(4,4-difluoropiperi-din-1-yl)ethoxy]-N-[(4,6-dimethyl-2-oxo-1,2-dihydropyridin-3-yl)methyl]-5-methyl-6-(1-methyl-1H-pyrazol-5-yl)pyrimidine-4-carboxamide] and `Cc1cc(C)c(CNC(=O)c2nc(OCCN3CCC(F)(F)C3)nc(-c3ccnn3C)c2C)c(=O)[nH]1` [Example 105, 2-[2-(3,3-difluoropyrroli-din-1-yl)ethoxy]-N-[(4,6-dimethyl-2-oxo-1,2-dihydropyridin-3-yl)methyl]-5-methyl-6-(1-methyl-1H-pyrazol-5-yl)pyrimidine-4-carboxamide] are within 1.5-fold of each other in IC50: 17.3 µM for the first, 19.8 µM for the second.

Compared with `Cc1cc(C(=O)NCc2c(C)cc(C)[nH]c2=O)c(C#N)c(OC(C)C)n1` [Example 99, 3-cyano-N-[(4,6-dimethyl-2-oxo-1,2-dihydropyridin-3-yl)methyl]-2-isopropoxy-6-methyliso-nicotinamide], `Cc1cc(C)c(CNC(=O)c2cccc(OC(C)C)c2F)c(=O)[nH]1` [Example 130, N-[(4,6-dimethyl-2-oxo-1,2-dihydropyridin-3-yl)methyl]-2-fluoro-3-isopropoxy-benzamide] is 3.9-fold higher in IC50: 17.6 µM for the first, 67.9 µM for the second. The first is the more potent here.

`Cc1cc(C)c(CNC(=O)c2nc(OC(C)C)nc(-c3ccnn3C)c2C)c(=O)[nH]1` [Example 100, N-[(4,6-dimethyl-2-oxo-1,2-dihydropyridin-3-yl)methyl]-2-isopropoxy-5-methyl-6-(1-methyl-1H-pyrazol-5-yl)pyrimidine-4-carboxamide] and `COc1nc(C(=O)NCc2c(C)cc(C)[nH]c2=O)c(C)c(-c2ccnn2C)n1` [Example 108, N-[(4,6-dimethyl-2-oxo-1,2-dihydropyridin-3-yl)methyl]-2-methoxy-5-methyl-6-(1-methyl-1H-pyrazol-5-yl)pyrimidine-4-carboxamide] are within 1.5-fold of each other in IC50: 17.6 µM for the first, 22.2 µM for the second.

`Cc1cc(C)c(CNC(=O)c2nc(OCCN3CC[C@H](F)C3)nc(-c3ccnn3C)c2C)c(=O)[nH]1` [Example 101, N-[(4,6-dimethyl-2-oxo-1,2-dihydropyridin-3-yl)methyl]-2-{2-[(3S)-3-fluoropyrrolidin-1-yl]ethoxy}-5-methyl-6-(1-methyl-1H-pyrazol-5-yl)pyrimidine-4-carboxamide] and `Cc1cc(C)c(CNC(=O)c2nc(OCCN3CC[C@@H](F)C3)nc(-c3ccnn3C)c2C)c(=O)[nH]1` [Example 103, N-[(4,6-dimethyl-2-oxo-1,2-dihydropyridin-3-yl)methyl]-2-{2-[(3R)-3-fluoropyrrolidin-1-yl]ethoxy}-5-methyl-6-(1-methyl-1H-pyrazol-5-yl)pyrimidine-4-carboxamide] are within 1.5-fold of each other in IC50: 18.4 µM for the first, 19.1 µM for the second.

`CCOc1nc(C(=O)NCc2c(C)cc(C)[nH]c2=O)c(C)c(-c2ccnn2C)n1` [Example 102, N-[(4,6-dimethyl-2-oxo-1,2-dihydropyridin-3-yl)methyl]-2-ethoxy-5-methyl-6-(1-methyl-1H-pyrazol-5-yl)pyrimidine-4-carboxamide] and `Cc1cc(C)c(CNC(=O)c2nc(OCCN3CC(F)C3)nc(-c3ccnn3C)c2C)c(=O)[nH]1` [Example 109, N-[(4,6-dimethyl-2-oxo-1,2-dihydropyridin-3-yl)methyl]-2-[2-(3-fluoroazetidin-1-yl)ethoxy]-5-methyl-6-(1-methyl-1H-pyrazol-5-yl)pyrimidine-4-carboxamide] are within 1.5-fold of each other in IC50: 18.6 µM for the first, 23 µM for the second.

`Cc1cc(C)c(CNC(=O)c2nc(-c3cnn(C)c3)nc(N3CCOC[C@@H]3C)c2C(F)(F)F)c(=O)[nH]1` [Example 104, N-[(4,6-dimethyl-2-oxo-1,2-dihydropyridin-3-yl)methyl]-6-[(3S)-3-methylmorpho-lin-4-yl]-2-(1-methyl-1H-pyrazol-4-yl)-5-(trifluoromethyl) pyrimidine-4-carboxamide] and `Cc1cc(C)c(CNC(=O)c2nc(O[C@H]3CCOC3)nc(-c3ccnn3C)c2C)c(=O)[nH]1` [Example 114, N-[(4,6-dimethyl-2-oxo-1,2-dihydropyridin-3-yl)methyl]-5-methyl-6-(1-methyl-1H-pyrazol-5-yl)-2-[(3S)-tetrahydro-furan-3-yloxy]pyrimidine-4-carboxamide] are within 1.5-fold of each other in IC50: 19.4 µM for the first, 28.4 µM for the second.

Compared with `Cc1cc(C)c(CNC(=O)c2ncnc(N3CC[C@H](C)C3)c2C)c(=O)[nH]1` [Example 107, N-[(4,6-dimethyl-2-oxo-1,2-dihydropyridin-3-yl)methyl]-5-methyl-6-[(3S)-3-methylpyrrolidin-1-yl]pyrimidine-4-carboxamide], `Cc1cc(C)c(CNC(=O)c2ncnc(N3CC[C@@H](C)C3)c2C)c(=O)[nH]1` [Example 120, N-[(4,6-dimethyl-2-oxo-1,2-dihydropyridin-3-yl)methyl]-5-methyl-6-[(3R)-3-methylpyrrolidin-1-yl]pyrimidine-4-carboxamide] is 1.9-fold higher in IC50: 21.8 µM for the first, 40.5 µM for the second.

First: Cc1cc(C)c(CNC(=O)c2nccc(-c3ccnn3C)c2C)c(=O)[nH]1 [Example 110, N-[(4,6-dimethyl-2-oxo-1,2-dihydropyridin-3-yl)methyl]-3-methyl-4-(1-methyl-1H-pyrazol-5-yl)pyridine-2-carboxamide]
Second: Cc1cc(C)c(CNC(=O)c2ncnc(-c3ccnn3C)c2C)c(=O)[nH]1 [Example 124, N-[(4,6-dimethyl-2-oxo-1,2-dihydropyridin-3-yl)methyl]-5-methyl-6-(1-methyl-1H-pyrazol-5-yl)pyrimidine-4-carboxamide]
The IC50 of the first is 2.1-fold lower: 23.2 µM for the first, 49.3 µM for the second.

First: Cc1cc(C)c(CNC(=O)c2cccc(-n3cnnc3C)c2C)c(=O)[nH]1 [Example 111, N-[(4,6-dimethyl-2-oxo-1,2-dihydropyridin-3-yl)methyl]-2-methyl-3-(3-methyl-4H-1,2,4-triazol-4-yl)benzamide]
Second: CCOc1cccc(C(=O)NCc2c(C)cc(C)[nH]c2=O)c1F [Example 134, N-[(4,6-dimethyl-2-oxo-1,2-dihydropyridin-3-yl)methyl]-3-ethoxy-2-fluoro-benzamide]
The IC50 of the first is 5.1-fold lower: 24.8 µM for the first, 127 µM for the second. The first is the more potent here.

`Cc1cc(C)c(CNC(=O)c2ncnc(N3CCCC3C(C)C)c2C)c(=O)[nH]1` (stereo not drawn) [Example 112, N-[(4,6-dimethyl-2-oxo-1,2-dihydropyridin-3-yl)methyl]-6-(2-isopropylpyrroli-din-1-yl)-5-methylpyrimidine-4-carboxamide] and `Cc1cc(C)c(CNC(=O)c2ncnc(N3CCC[C@@H]3C#N)c2C)c(=O)[nH]1` [Example 116, 6-[(2R)-2-cyanopyrrolidin-1-yl]-N-[(4,6-dimethyl-2-oxo-1,2-dihydropyridin-3-yl)methyl]-5-methyl-pyrimidine-4-carboxamide] are within 1.5-fold of each other in IC50: 25.3 µM for the first, 29.2 µM for the second.

`Cc1cc(C)c(CNC(=O)c2ncnc(-c3ccnn3C)c2Cl)c(=O)[nH]1` [Example 115, 5-chloro-N-[(4,6-dimethyl-2-oxo-1,2-dihydropyridin-3-yl)methyl]-6-(1-methyl-1H-pyrazol-5-yl)pyrimidine-4-carboxamide] and `Cc1cc(C)c(CNC(=O)c2nc(OCCN3CC(F)(F)C3)nc(-c3ccnn3C)c2C)c(=O)[nH]1` [Example 117, 2-[2-(3,3-difluoroazetidin-1-yl)ethoxy]-N-[(4,6-dimethyl-2-oxo-1,2-dihydropyridin-3-yl)methyl]-5-methyl-6-(1-methyl-1H-pyrazol-5-yl)pyrimidine-4-carboxamide] are within 1.5-fold of each other in IC50: 28.7 µM for the first, 31.1 µM for the second.

`CCCc1cc(C)[nH]c(=O)c1CNC(=O)c1nc(C2CC2)nc(-c2ccnn2C)c1C` [Example 118, 2-cyclopropyl-5-methyl-N-[(6-methyl-2-oxo-4-propyl-1,2-dihydropyridin-3-yl)methyl]-6-(1-methyl-1H-pyrazol-5-yl)pyrimidine-4-carboxamide] and `Cc1cc(C)c(CNC(=O)c2ncnc(N3CCCC3C3CC3)c2C)c(=O)[nH]1` (stereo not drawn) [Example 122, 6-(2-cyclopropyl-pyrrolidin-1-yl)-N-[(4,6-dimethyl-2-oxo-1,2-dihydropyridin-3-yl)methyl]-5-methylpyrimidine-4-carboxamide] are within 1.5-fold of each other in IC50: 31.8 µM for the first, 43.6 µM for the second.

`Cc1cc(C(F)(F)F)c(CNC(=O)c2cccc(-c3ccnn3C)c2Cl)c(=O)[nH]1` [Example 121, 2-chloro-N-{[6-methyl-2-oxo-4-(trifluoromethyl)-1,2-dihydropyridin-3-yl]methyl}-3-(1-methyl-1H-pyrazol-5-yl)benzamide] and `Cc1cc(C)c(CNC(=O)c2ncnc(N3CCOCC3)c2C)c(=O)[nH]1` [Example 123, N-[(4,6-dimethyl-2-oxo-1,2-dihydropyridin-3-yl)methyl]-5-methyl-6-morpholin-4-ylpyrimidine-4-carboxamide] are within 1.5-fold of each other in IC50: 42.1 µM for the first, 44.4 µM for the second.

First: Cc1cc(C)c(CNC(=O)c2ncnc(N3CCCC3)c2C)c(=O)[nH]1 [Example 125, N-[(4,6-dimethyl-2-oxo-1,2-dihydropyridin-3-yl)methyl]-5-methyl-6-pyrrolidin-1-ylpyrimidine-4-carboxamide]
Second: Cc1cc(C)c(CNC(=O)c2ncnc(N3CCC[C@@H]3CO)c2C)c(=O)[nH]1 [Example 133, N-[(4,6-dimethyl-2-oxo-1,2-dihydropyridin-3-yl)methyl]-6-[(2R)-2-(hydroxymeth-yl)pyrrolidin-1-yl]-5-methylpyrimidine-4-carboxamide]
The IC50 of the first is 1.7-fold lower: 50.7 µM for the first, 87.5 µM for the second. The first is the more potent here.

`COC[C@H]1CCCN1c1ncnc(C(=O)NCc2c(C)cc(C)[nH]c2=O)c1C` [Example 131, N-[(4,6-dimethyl-2-oxo-1,2-dihydropyridin-3-yl)methyl]-6-[(2R)-2-(methoxymeth-yl)pyrrolidin-1-yl]-5-methylpyrimidine-4-carboxamide] and `COCC1CCN(c2ncnc(C(=O)NCc3c(C)cc(C)[nH]c3=O)c2C)C1` (stereo not drawn) [Example 132, N-[(4,6-dimethyl-2-oxo-1,2-dihydropyridin-3-yl)methyl]-6-[3-(methoxymeth-yl)pyrrolidin-1-yl]-5-methylpyrimidine-4-carboxamide] are within 1.5-fold of each other in IC50: 77.8 µM for the first, 81.4 µM for the second.
